Measured values reported in US10537555B2, “Complex of angiotensin receptor antagonist and neutral endopeptidase inhibitor” (CHENGDU EASTON BIOPHARMACEUTICALS CO., LTD., priority 2015, dated 2020).

Experiments:
Type in all cases: physicochemical
[1] = Hygroscopy test (25±1° C., RH 80%±2%, 24 hours); settings: for Appearance at Hour Twenty-Four / Weight Increase: 24 hours
Excerpt: The results are in Table XII.

[2] = Chemical stability test (HPLC purity under strong light, high temperature, high humidity); set-up: Purity, Valsartan: unit not given here
Excerpt: On Day 5 and Day 10, respectively, test samples were taken to test their purity.

[3] = LCZ696 under high humidity conditions for ten days
Excerpt: LCZ696 is highly hygroscopic. […] It is well known that hygroscopicity causes difficulties in granulations, disintegration, dissolution of the solid form during the formulation process, affecting the stability and efficacy of the drug product. Hygroscopic compounds also require more expensive and complex excipients, manufacturing processes, and storage facilities.

With `CCCCC(=O)N(Cc1ccc(-c2ccccc2-c2nn[n-]n2)cc1)C(C(=O)[O-])C(C)C.CCCCC(=O)N(Cc1ccc(-c2ccccc2-c2nn[n-]n2)cc1)C(C(=O)[O-])C(C)C.CCOC(=O)C(C)CC(Cc1ccc(-c2ccccc2)cc1)NC(=O)CCC(=O)[O-].CCOC(=O)C(C)CC(Cc1ccc(-c2ccccc2)cc1)NC(=O)CCC(=O)[O-].O.O.O.O.O.[Na+].[Na+].[Na+].[Na+].[Na+].[Na+]` (stereo not shown) [Comparative Example] the “Appearance at Hour Twenty-Four” value [1] was “Almost a liquid”, the “Weight Increase” value [1] was 22.34% and the “Appearance at Hour Twenty-Four” value ([1]; listed as comparative example) was “almost became a liquid”. For the same compound, the “Weight Increase” value ([1]; listed as comparative example) was “more than 15%”, the “Appearance at Hour Zero” value ([1]; hour zero) was “Off white powder” and the “Change of HPLC purity in stability test” value ([2]; 10 days at 60° C., 25° C. RH90%±5%, or 4500 lux±500 lux) was “only slight decreases in purities”. The “Purity, Valsartan” value ([2]; Humidity 25° C. RH90%, 5 days) was 37.05, the “Purity, Valsartan” value ([2]; Humidity 25° C. RH90%, 10 days) was 37.01 and the “Purity, Valsartan” value ([2]; Light 4500Lux, 5 days) was 37.04. The “Purity, Valsartan” value ([2]; Light 4500Lux, 10 days) was 36.99, the “Purity, Valsartan” value ([2]; Temperature 60° C., 5 days) was 37.03 and the “Purity, Valsartan” value ([2]; Temperature 60° C., 10 days) was 36.98. The “Hygroscopicity, physical form after exposure” value [3] was “absorbs water and turns into a liquid form”.
